Measured values published in the supplement of paper PMC10307832.

Assays:
Assay in all cases: relative viability (nuclei count vs DMSO), 5 days (fraction); higher = more cells survive
BAY61-3606 + Tozasertib = compound: COC1=C(C=C(C=C1)C2=CC3=NC=CN3C(=N2)NC4=C(C=CC=N4)C(=O)N)OC [BAY61-3606] + Cc1cc(Nc2cc(N3CCN(C)CC3)nc(Sc3ccc(NC(=O)C4CC4)cc3)n2)n[nH]1 [Tozasertib] (partner 0.1 µM)
In short: (§1)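 One day after seeding in 1536-well plates, lung cancer cell lines were dosed by pin tool. Dosing was either single-drug or a fixed anchor-drug dose plus five library-drug doses (not always all listed) in √10 steps. After 5 days, nuclei were stained in one fix-and-stain step and counted on 4× images, and relative viability is the nuclei count of treated wells over that of vehicle wells, given as the median of duplicate plates.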

Doxorubicin + Crizotinib = compound: COc1cccc2c1C(=O)c1c(O)c3c(c(O)c1C2=O)C[C@@](O)(C(=O)CO)C[C@@H]3O[C@H]1C[C@H](N)[C@H](O)[C@H](C)O1 [Doxorubicin] + C[C@@H](Oc1cc(-c2cnn(C3CCNCC3)c2)cnc1N)c1c(Cl)ccc(F)c1Cl [Crizotinib] (partner 1 µM)
In short: as §1

Doxorubicin + Navitoclax = compound: COc1cccc2c1C(=O)c1c(O)c3c(c(O)c1C2=O)C[C@@](O)(C(=O)CO)C[C@@H]3O[C@H]1C[C@H](N)[C@H](O)[C@H](C)O1 [Doxorubicin] + CC1(C)CCC(c2ccc(Cl)cc2)=C(CN2CCN(c3ccc(C(=O)NS(=O)(=O)c4ccc(N[C@H](CCN5CCOCC5)CSc5ccccc5)c(S(=O)(=O)C(F)(F)F)c4)cc3)CC2)C1 [Navitoclax] (partner 0.5 µM)
In short: as §1

Doxorubicin + Pemetrexed = compound: COc1cccc2c1C(=O)c1c(O)c3c(c(O)c1C2=O)C[C@@](O)(C(=O)CO)C[C@@H]3O[C@H]1C[C@H](N)[C@H](O)[C@H](C)O1 [Doxorubicin] + Nc1nc2[nH]cc(CCc3ccc(C(=O)N[C@@H](CCC(=O)O)C(=O)O)cc3)c2c(=O)[nH]1 [Pemetrexed] (partner 0.2 µM)
In short: as §1

Cell Line | relative viability (BAY61-3606 + Tozasertib; first compound 0.02 µM) | relative viability (BAY61-3606 + Tozasertib; first compound 0.06325 µM) | relative viability (BAY61-3606 + Tozasertib; first compound 0.2 µM) | relative viability (BAY61-3606 + Tozasertib; first compound 0.6325 µM) | relative viability (BAY61-3606 + Tozasertib; first compound 2 µM) | relative viability (Doxorubicin + Crizotinib; first compound 0.001 µM) | relative viability (Doxorubicin + Crizotinib; first compound 0.003162 µM) | relative viability (Doxorubicin + Crizotinib; first compound 0.01 µM) | relative viability (Doxorubicin + Crizotinib; first compound 0.03162 µM) | relative viability (Doxorubicin + Crizotinib; first compound 0.1 µM) | relative viability (Doxorubicin + Navitoclax; first compound 0.001 µM) | relative viability (Doxorubicin + Navitoclax; first compound 0.003162 µM) | relative viability (Doxorubicin + Navitoclax; first compound 0.01 µM) | relative viability (Doxorubicin + Navitoclax; first compound 0.03162 µM) | relative viability (Doxorubicin + Navitoclax; first compound 0.1 µM) | relative viability (Doxorubicin + Pemetrexed; first compound 0.001 µM) | relative viability (Doxorubicin + Pemetrexed; first compound 0.003162 µM) | relative viability (Doxorubicin + Pemetrexed; first compound 0.01 µM) | relative viability (Doxorubicin + Pemetrexed; first compound 0.03162 µM) | relative viability (Doxorubicin + Pemetrexed; first compound 0.1 µM)
LXF-289 | 0.227 | 0.183 | 0.194 | 0.16 | 0.165 | 0.761 | 0.832 | 0.832 | 0.837 | 0.805 | 0.935 | 0.939 | 0.873 | 0.983 | 0.944 | 0.95 | 0.917 | 0.839 | 1.03 | 0.929
NCI-H1437 | 0.402 | 0.391 | 0.428 | 0.416 | 0.374 | 0.866 | 0.924 | 0.962 | 0.517 | 0.262 | 1.03 | 1.12 | 1.02 | 0.75 | 0.379 | 0.32 | 0.297 | 0.303 | 0.315 | 0.329
HCC-827 | 0.412 | 0.415 | 0.373 | 0.387 | 0.38 | 0.982 | 0.993 | 0.913 | 0.955 | 0.908 | 1.03 | 1.03 | 1.06 | 1.1 | 1.03 | 0.272 | 0.281 | 0.22 | 0.247 | 0.261
NCI-H1650 | 0.362 | 0.265 | 0.264 | 0.329 | 0.204 | 0.925 | 0.903 | 0.283 | 0.181 | 0.13 | 1.11 | 1.18 | 1.11 | 0.33 | 0.203 | 0.37 | 0.374 | 0.381 | 0.242 | 0.19
HCC-15 | 0.29 | 0.194 | 0.222 | 0.2 | 0.149 | 0.733 | 0.817 | 0.767 | 0.551 | 0.534 | 0.707 | 0.716 | 0.705 | 0.665 | 0.634 | 0.239 | 0.215 | 0.228 | 0.205 | 0.205
EKVX | 0.366 | 0.299 | 0.383 | 0.436 | 0.16 | 0.865 | 1.02 | 0.792 | 1.02 | 0.948 | 0.929 | 1.09 | 1 | 0.853 | 0.61 | 0.336 | 0.404 | 0.426 | 0.45 | 0.257
NCI-H2126 | 0.895 | 0.485 | 0.801 | 0.945 | 0.331 | 1.04 | 1.08 | 0.961 | 1.08 | 1.05 | 0.853 | 0.826 | 0.864 | 0.884 | 0.928 | 0.623 | 0.738 | 0.712 | 0.699 | 0.681
